Reference: the NIST ThermoML archive (doi:10.1016/j.jct.2013.11.013)
“And” between values parts separate entries of the source, which are not always exact repeats. Identical values can stand only once.

Columns and labels:
[1] = Crystal; for vapor or sublimation pressure: Calculated from knudsen effusion weight loss; for Normal melting temperature: DTA
[2] = molar enthalpy of vaporization or sublimation; settings: 298.15 K; Crystal; Static calorimetry
[3] = Molar enthalpy of transition or fusion; settings: Crystal; DSC

c1ccc2c(c1)Nc1ccccc1S2 [10H-phenothiazine]
[1]
Settings | vapor or sublimation pressure
357.16 K | 0.0001222 kPa and 0.000127 kPa and 0.0001245 kPa
359.11 K | 0.000157 kPa and 0.0001593 kPa and 0.000151 kPa
361.09 K | 0.0001862 kPa and 0.0001894 kPa
363.16 K | 0.0002302 kPa and 0.0002289 kPa and 0.0002278 kPa
365.1 K | 0.0002854 kPa and 0.0002713 kPa and 0.0002851 kPa
367.08 K | 0.0003408 kPa and 0.0003366 kPa and 0.0003279 kPa
369.16 K | 0.0004206 kPa and 0.0004159 kPa and 0.0004168 kPa
371.1 K | 0.0005122 kPa and 0.000496 kPa and 0.000513 kPa
373.09 K | 0.0006118 kPa and 0.0005996 kPa
375.14 K | 0.0007352 kPa and 0.0007169 kPa and 0.0007525 kPa
377.11 K | 0.0008924 kPa and 0.0008545 kPa and 0.0008994 kPa
379.1 K | 0.0009984 kPa and 0.0009874 kPa and 0.001053 kPa

Settings | Molar enthalpy of transition or fusion [kcal/mol] | Normal melting temperature [°C] | molar enthalpy [kcal/mol]
[1] | – | 185.70 | –
[2] | – | – | 24.69
[3] | 6.43 | – | –

c1ccc2c(c1)Nc1ccccc1O2 [phenoxazine]
[1]
Settings | vapor or sublimation pressure
333.18 K | 9.52e-05 kPa and 9.41e-05 kPa and 9.09e-05 kPa
335.2 K | 0.0001178 kPa and 0.000118 kPa and 0.0001119 kPa
337.1 K | 0.0001463 kPa and 0.000143 kPa and 0.0001421 kPa
339.17 K | 0.0001789 kPa and 0.0001744 kPa and 0.0001819 kPa
341.24 K | 0.0002193 kPa and 0.0002141 kPa and 0.0002236 kPa
343.14 K | 0.0002773 kPa and 0.0002712 kPa and 0.0002629 kPa
345.17 K | 0.0003274 kPa and 0.0003216 kPa and 0.0003308 kPa
347.19 K | 0.0004072 kPa and 0.0003893 kPa and 0.0004049 kPa
349.11 K | 0.000488 kPa and 0.0004919 kPa and 0.0004776 kPa
351.17 K | 0.000606 kPa and 0.0005906 kPa and 0.0006233 kPa
353.17 K | 0.0007525 kPa and 0.000734 kPa and 0.0007159 kPa
355.1 K | 0.0008813 kPa and 0.0008967 kPa and 0.0008889 kPa
357.1 K | 0.001069 kPa and 0.001075 kPa and 0.001077 kPa

Settings | Molar enthalpy of transition or fusion [kcal/mol] | Normal melting temperature [°C] | molar enthalpy [kcal/mol]
[1] | – | 157.58 | –
[2] | – | – | 24.26
[3] | 5.14 | – | –
